Reference: patent US4420488A, “Quaternary 1,1-diphenyl-4-pyrrolidinium-2-butyne salts, a process for their production and medicaments containing these compounds” (Ludwig Heumann & Co. GmbH, priority 1980, dated 1983)
Where two headings read alike, the source gives them in different places.

What was measured:
[1] = Inhibition of the carbachol-induced secretion of saliva (rat), cholinolytic side effects (mod. Brown, Quinton); settings: in vivo, po, i.g.
From the text: (§1) As already mentioned, the compounds according to the invention show better pharmacological properties than the known butynoline phosphate, particularly in regard to the broncholytic and anti-ulcerogenic effect obtainable therewith. Tests relating to inhibition of the carbachol-induced secretion of saliva and mydriasis have shown that the compounds according to the invention have fewer side effects than the known butynoline phosphate.
(§2) The following Table summarizes the results of pharmacological studies conducted with the compound according to the invention, 1,1-diphenyl-4-pyrrolidinyl-2-butyne-1-ol-N-methyl ammonium bromide, and with butynoline phosphate as the comparison substance.
i.g. i.g. Brown, D. M., Quinton,
24 9.8 R. M., Brit. J. Pharma-

[2] = system: carbachol-induced gastric secretion; test: Inhibition of the carbachol-induced gastric secretion (Heidenhain cat) (Engler, Fritschi); assay type: in vivo; settings: Felis catus, po, i.g.
From the text: as §2
0.3 0.3 Schmiedeberg's Arch.
(Heidenhain cat) Pharmacol. 297,

Hi = test: Broncholysis (guinea pig), Hi (Konzett, Rossler); assay type: in vivo; settings: Cavia porcellus, iv
From the text: as §2
(§3) ACH 30 ACH 60 Rossler, R.,
(§4) Hi 500 Hi 1000 Arch. exp. Pharmacol.

[3] = target: T1, Mee-ileum (Cavia porcellus); test: Spasmolytic effect in vitro (Mee-ileum) (Van Rossum); settings: ACH, read-out: Spasmolytic effect in vitro pA2 (ACH) (converted)
T1 construct: in vitro (Mee-ileum); from tissue; host or cells: isolated ileum ('Mee-ileum', read as guinea pig ileum)
T1 sequence (H0W1Z3 1-590): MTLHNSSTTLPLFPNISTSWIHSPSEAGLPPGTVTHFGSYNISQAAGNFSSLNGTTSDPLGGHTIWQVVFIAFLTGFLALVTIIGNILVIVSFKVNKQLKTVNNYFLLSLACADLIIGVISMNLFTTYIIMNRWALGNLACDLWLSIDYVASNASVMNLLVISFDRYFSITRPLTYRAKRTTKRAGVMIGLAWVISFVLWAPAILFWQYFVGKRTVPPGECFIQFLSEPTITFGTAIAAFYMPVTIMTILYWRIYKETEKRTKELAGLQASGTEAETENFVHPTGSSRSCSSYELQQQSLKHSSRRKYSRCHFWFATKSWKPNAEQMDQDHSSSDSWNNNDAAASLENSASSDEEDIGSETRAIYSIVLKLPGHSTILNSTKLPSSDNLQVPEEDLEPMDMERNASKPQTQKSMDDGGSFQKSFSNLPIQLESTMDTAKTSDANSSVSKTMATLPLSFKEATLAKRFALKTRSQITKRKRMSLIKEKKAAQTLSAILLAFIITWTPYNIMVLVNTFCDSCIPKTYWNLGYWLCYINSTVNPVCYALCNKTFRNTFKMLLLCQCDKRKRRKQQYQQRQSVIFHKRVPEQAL
From the text: as §2
8.0 8.2 Arch. Int. Pharmaco-

stress ulcer = test: Anti-ulcerogenic effect, stress ulcer (Takagi, Okabe); assay type: in vivo; settings: po, i.g.
From the text: as §2
effect i.g. i.g. Jap. J. Pharmac. 18,

ACH = test: Broncholysis (guinea pig), ACH (Konzett, Rossler); assay type: in vivo; settings: Cavia porcellus, iv
From the text: as §2, §3, §4

[4] = Mydriasis, cholinolytic side effects (Pulewka); settings: in vivo, po, i.g.
From the text: as §1, §2
i.g. i.g. exp. Pharmacol.

[5] = in words; cited from earlier work

Compound | ED50 [1] [mg/kg] | ED50 ([2]; read-out: Inhibition of the carbachol-induced gastric secretion ED50) [mg/kg] | ED50 (Hi) [mg/kg] | Kb [3] [nM] | ED50 (stress ulcer) [mg/kg] | ED50 (ACH) [mg/kg] | ED50 [4] [mg/kg] | ED50 ([2]; butynoline phosphate column, read-out: Inhibition of the carbachol-induced gastric secretion ED50 (ACH)) [mg/kg] | pharmacological activity (known) [5]
C[N+]1(CC#CC(O)(c2ccccc2)c2ccccc2)CCCC1 [1,1-diphenyl-4-pyrrolidinyl-2-butyne-1-ol-N-methyl ammonium bromide] | 24 | 0.3 | 0.5 | 10 | 25 | 0.03 | 128 |  | 
OC(C#CCN1CCCC1)(c1ccccc1)c1ccccc1 [Butynoline phosphate, phosphate of 1,1-diphenyl-4-pyrrolidino-2-butyne-1-ol] | 9.8 |  | 1 | 6.31 | 150 | 0.06 | 16 | 0.3 | anti-cholinergic spasmolytic and anti-ulcerogenic activity
